Experimental data taken from patent US9745597B2, “Compositions and methods for controlling fungal and bacterial diseases in plants” (priority 2014, dated 2017).
Counter-ions that a name gives are not always drawn.

Legend:
Uromyces appendiculatus = assay: In vivo preventive test on Uromyces (beans) (Example 13); conditions: rate 0.05%; 10 days after inoculation
Alternaria solani [1] = assay: In vivo preventive test on Alternaria (tomatoes) (Example 11); conditions: rate 0.05%; 3 days after inoculation
Phakopsora pachyrhizi = assay: In vivo preventive test on Phakopsora (soybeans) (Example 12); conditions: rate 0.05%; 7 days after inoculation
Venturia inaequalis [2] = assay: In vivo preventive test on Venturia (apples), equilibrated mixtures (Example 17); conditions: 10 days after inoculation
Botrytis cinerea [3] = assay: In vivo preventive test on Botrytis (beans) (Example 19); conditions: lesion size 3 days after inoculation
Alternaria solani [4] = assay: In vivo preventive test on Alternaria (tomatoes), equilibrated mixtures (Example 18); conditions: 3 days after inoculation
Erwinia amylovora = assay: In vivo control of Erwinia amylovora on apple blossoms (Example 30); conditions: concentration 0.025 % applied to blossoms; after 6-7 days
Phytophthora infestans [5] = format: in vivo; conditions: for fungicidal activity against Tomato Late Blight: 0.25, 0.50 and 1.00 weight %, FIG. 4; for Percent Control of Tomato Late Blight: 1.0 weight % in 50% ethanol
Botrytis cinerea [6] = assay: In vivo preventive test on Botrytis (beans) (Example 14); conditions: rate 0.2%; lesion size 3 days after inoculation
Sphaerotheca fuliginea [7] = assay: In vivo preventive test on Sphaerotheca (cucumbers), equilibrated mixtures (Example 16); conditions: rate 0.015%; 7 days after inoculation
Sphaerotheca fuliginea [8] = assay: In vivo preventive test on Sphaerotheca (cucumbers) (Example 9); conditions: rate 0.05%; 7 days after inoculation
Description: […] (Bacillus subtilis QST713 fermentation product) and the adjuvants […]-77 (polyalkyleneoxide modified heptamethyltrisiloxane), […]® (synthetic latex), NIMBUS® (paraffin mineral oil), […] (rapeseed oil methyl ester; castor oil ethoxylated) or MERO® (rapeseed oil methyl ester) were diluted in water to the desired concentrations and applied separately and in combination to young cucumber plants. After the spray coating had dried on, the plants were inoculated with an aqueous spore suspension of Sphaerotheca fuliginea. […] (Bacillus subtilis QST713 fermentation product) in combination with […]-77 (polyalkyleneoxide modified heptamethyltrisiloxane), […]® (synthetic latex), NIMBUS® (paraffin mineral oil), […] (rapeseed oil methyl ester; castor oil ethoxylated) or MERO® (rapeseed oil methyl ester) is greater than the calculated activity, i.e., a synergistic effect is present.

Venturia inaequalis [9] = assay: In vivo preventive test on Venturia (apples) (Example 10); conditions: rate 0.05%; 10 days after inoculation
Phytophthora infestans [10] = format: in vivo; conditions: rates between 0.0625 and 2.0 weight %; FIG. 2A, FIG. 3
Botrytis cinerea [11] = format: in vivo; conditions: rates between 0.0625 and 1.0 weight %; FIG. 2B

CCCCC(CC)COC(=O)CC(C(=O)OCC(CC)CCCC)S(=O)(=O)[O-].[Na+] (stereo not drawn) [GEROPON ® DOS-PG]
Efficacy in % Found (Uromyces appendiculatus): 0% | Efficacy in % Found (Alternaria solani [1]): 35% | Efficacy in % Found (Phakopsora pachyrhizi): 0% | Efficacy in % Found (Venturia inaequalis [2]; rate 0.03%): 38% | Efficacy in % Found (Venturia inaequalis [2]; rate 0.06%): 15% | Efficacy in % Found (Venturia inaequalis [2]; rate 0.12%): 28%

CCCCCCCCCCCCOS(=O)(=O)[O-].[Na+] [LOXANOL ® K12P, sodium dodecyl sulfate]
Efficacy in % Found (Venturia inaequalis [2]; rate 0.03%): 11% | Efficacy in % Found (Venturia inaequalis [2]; rate 0.06%): 41% | Efficacy in % Found (Venturia inaequalis [2]; rate 0.12%): 73% | Efficacy in % Found (Botrytis cinerea [3]; rate 0.12%): 0% | Efficacy in % Found (Alternaria solani [4]; rate 0.015%): 8% | Efficacy in % Found (Alternaria solani [4]; rate 0.03%): 0% | Efficacy in % Found (Alternaria solani [4]; rate 0.06%): 23% | Efficacy in % Found (Alternaria solani [4]; rate 0.12%): 30%

[H]/N=C(/N)N[C@H]1[C@H](O)[C@@H](O)[C@H](O[C@@H]2O[C@@H](C)[C@](O)(C=O)[C@H]2O[C@@H]2O[C@@H](CO)[C@H](O)[C@@H](O)[C@@H]2NC)[C@@H](N/C(N)=N\[H])[C@@H]1O [Streptomycin sulfate]
Efficacy in % (Erwinia amylovora): 89%

CCCCCCCCCCO[C@@H]1O[C@H](CO)[C@@H](O)[C@H](O)[C@H]1O [n-decyl-B-D-glucoside]
fungicidal activity against Tomato Late Blight (Phytophthora infestans [5]): fungicidal activity was observed | Percent Control of Tomato Late Blight (Phytophthora infestans [5]): 97%

CCCCCCCCCCCCO[C@@H]1O[C@H](CO)[C@@H](O)[C@H](O)[C@H]1O [n-dodecyl-B-D-glucoside]
fungicidal activity against Tomato Late Blight (Phytophthora infestans [5]): fungicidal activity was observed | Percent Control of Tomato Late Blight (Phytophthora infestans [5]): 96%

CCCCCCCCCO[C@@H]1O[C@H](CO)[C@@H](O)[C@H](O)[C@H]1O [n-nonyl-B-D-glucoside]
fungicidal activity against Tomato Late Blight (Phytophthora infestans [5]): fungicidal activity was observed | Percent Control of Tomato Late Blight (Phytophthora infestans [5]): 77%

C8-10 alkyl polyglycoside [AGNIQUE ® PG8107G]
Efficacy in % Found (Botrytis cinerea [6]): 0%

C12-C14 lauryl dimethyl betaine [GENAGEN ® KB]
Efficacy in % Found (Venturia inaequalis [2]; rate 0.015%): 15% | Efficacy in % Found (Botrytis cinerea [3]; rate 0.06%): 18% | Efficacy in % Found (Botrytis cinerea [3]; rate 0.12%): 39%

alkyl polyethylene glycol ether phosphoric acid mono/diester [HORDAPHOS ® 1306]
Efficacy in % Found (Venturia inaequalis [2]; rate 0.06%): 19% | Efficacy in % Found (Botrytis cinerea [3]; rate 0.12%): 0% | Efficacy in % Found (Botrytis cinerea [3]; rate 0.25%): 14% | Efficacy in % Found (Sphaerotheca fuliginea [7]): 0% | Efficacy in % Found (Alternaria solani [4]; rate 0.015%): 30% | Efficacy in % Found (Alternaria solani [4]; rate 0.03%): 32%

cocoamidopropyl betaine (C8-C18) [GENAGEN ® CAB 818]
Efficacy in % Found (Venturia inaequalis [2]; rate 0.015%): 4% | Efficacy in % Found (Venturia inaequalis [2]; rate 0.03%): 68% | Efficacy in % Found (Venturia inaequalis [2]; rate 0.06%): 56% | Efficacy in % Found (Botrytis cinerea [3]; rate 0.06%): 29% | Efficacy in % Found (Botrytis cinerea [3]; rate 0.12%): 32%

octyl glucose neopentyl glycol
fungicidal activity against Tomato Late Blight (Phytophthora infestans [5]): fungicidal activity was observed

polyalkyleneoxide modified heptamethyltrisiloxane [SILWET ® L-77]
Efficacy in % Found (Uromyces appendiculatus): 0% | Efficacy in % Found (Alternaria solani [1]): 16% | Efficacy in % Found (Phakopsora pachyrhizi): 0% | Efficacy in % Found (Sphaerotheca fuliginea [8]): 0% | Efficacy in % Found (Venturia inaequalis [9]): 0%

sorbitan monolaurate [SPAN ® 20]
Percent Control of Tomato Late Blight (Phytophthora infestans [5]): 75% | control of Tomato Late Blight (Phytophthora infestans [10]): the highest level of control was observed at 1.0 and 2.0 weight % | control of Pepper Grey Mould (Botrytis cinerea [11]): increasing control of the plant pathogen was observed as higher rates were applied

sorbitan oleate [SPAN ® 80]
Percent Control of Tomato Late Blight (Phytophthora infestans [5]): 50%

sorbitan trioleate [SPAN ® 85]
Percent Control of Tomato Late Blight (Phytophthora infestans [5]): 0%

sucrose monodecanoate
Percent Control of Tomato Late Blight (Phytophthora infestans [5]): 25%
